Results: ChEMBL document CHEMBL1155691, “Novel extracellular diterpenoids with biological activity from the cyanobacterium Nostoc commune” (2000)
In brackets after ≈: the same amount, converted by molar mass.

Key:
Type in all cases: functional
[1] = system: Staphylococcus epidermidis; assay: Antimicrobial activity against Staphylococcus epidermidis ATCC 12228
Bacillus cereus = assay: Antimicrobial activity against Bacillus cereus ATCC 10702
Escherichia coli = assay: Antimicrobial activity against Escherichia coli ATCC 25922
Biomphalaria glabrata = assay: Antimolluscicidal activity against Biomphalaria glabrata
KB = assay: Cytotoxicity against human KB cells
Caco-2 = assay: Cytotoxicity against human Caco-2 cells

Compound	MIC [1]	MIC (Bacillus cereus)	MIC (Escherichia coli)	MIC (Biomphalaria glabrata)	MIC (KB)	MIC (Caco-2)
O=C(N[C@H](CO)[C@H](O)c1ccc([N+](=O)[O-])cc1)C(Cl)Cl [CHLORAMPHENICOL]	4 µg/mL (≈ 12.4 µM)	8 µg/mL (≈ 24.8 µM)				
C[C@@H]1CC[C@@]2(C)[C@@H](CC[C@]3(C)[C@@H]2CC[C@@]3(C)CO)[C@]1(C)Cc1cc(C(=O)O)ccc1O [COMNASTIN A]	16 µg/mL (≈ 37.3 µM)	32 µg/mL (≈ 74.7 µM)	128 µg/mL (≈ 299 µM)			
C[C@@H]1CC[C@@]2(C)[C@@H](CC[C@]3(C)[C@@H]2CC[C@@]3(C)C=O)[C@]1(C)Cc1cc(C(=O)O)ccc1O [COMNASTIN B]	16 µg/mL (≈ 37.5 µM)	32 µg/mL (≈ 75 µM)	128 µg/mL (≈ 300 µM)	20 µg/mL (≈ 46.9 µM)	0.4 µg/mL (≈ 0.938 µM)	0.18 µg/mL (≈ 0.422 µM)
C[C@@H]1CC[C@@]2(C)[C@@H](CC[C@]3(C)[C@@H]2CC[C@@]3(C)C(=O)O)[C@]1(C)Cc1cc(C(=O)O)ccc1O [COMNASTIN C]	16 µg/mL (≈ 36.2 µM)	32 µg/mL (≈ 72.3 µM)	64 µg/mL (≈ 145 µM)			
COC(OC)[C@]1(C)CC[C@@H]2[C@@]3(C)CC[C@@H](C)[C@@](C)(Cc4cc(C(=O)O)ccc4O)[C@@H]3CC[C@]21C [COMNASTIN D]	32 µg/mL (≈ 67.7 µM)	16 µg/mL (≈ 33.9 µM)	128 µg/mL (≈ 271 µM)			
CC(=O)[C@@H]1CC[C@@H]2[C@@]3(C)CC[C@@H](C)[C@@](C)(Cc4cc(C(=O)O)ccc4O)[C@@H]3CC[C@]21C [COMNASTIN E]	4 µg/mL (≈ 9.38 µM)	128 µg/mL (≈ 300 µM)				
COc1cc([C@@H]2c3cc4c(cc3[C@H](O)[C@H]3COC(=O)[C@H]23)OCO4)cc(OC)c1OC [PODOFILOX]					0.01 µg/mL (≈ 0.0241 µM)	0.02 µg/mL (≈ 0.0483 µM)
CN(C)[C@@H]1C(O)=C(C(N)=O)C(=O)[C@@]2(O)C(O)=C3C(=O)c4c(O)cccc4[C@@](C)(O)[C@H]3C[C@@H]12 [TETRACYCLINE]			64 µg/mL (≈ 144 µM)			
